Assay results from the kinase profiling compilation of Christmann-Franck et al. (2016).

Tests used:
Test in all cases: Caliper, Mobility shift assay off-chip
CAMK2D (human) = CAMK2D (human) (UniProt Q13557)
CSNK1A1 (human) = CSNK1A1 (human) (UniProt P48729)
EGFR (human) = EGFR (human) (UniProt P00533)
AURKA (human) = AURKA (human) (UniProt O14965)
ABL1 (human) = ABL1 (human) (UniProt P00519)
SYK (human) = SYK (human) (UniProt P43405)
MAPK3 (human) = MAPK3 (human) (UniProt P27361)
AKT1 (human) = AKT1 (human) (UniProt P31749)
AKT2 (human) = AKT2 (human) (UniProt P31751)
RPS6KA1 KD1 KD2 (human) = RPS6KA1 KD1 KD2 (human) (UniProt Q15418)
BMX (human) = BMX (human) (UniProt P51813)
RPS6KA3 KD1 KD2 (human) = RPS6KA3 KD1 KD2 (human) (UniProt P51812)
FER (human) = FER (human) (UniProt P16591)
SGK1 (human) = SGK1 (human) (UniProt O00141)
DCLK2 (human) = DCLK2 (human) (UniProt Q8N568)
MAPKAPK5 (human) = MAPKAPK5 (human) (UniProt Q8IW41)
AKT3 (human) = AKT3 (human) (UniProt Q9Y243)
CDK2 (human) = CDK2 (human) (UniProt P24941)
PAK2 (human) = PAK2 (human) (UniProt Q13177)
LYN (human) = LYN (human) (UniProt P07948)
CAMK4 (human) = CAMK4 (human) (UniProt Q16566)
MAP4K4 (human) = MAP4K4 (human) (UniProt O95819)
PRKCB2 (human) = PRKCB2 (human) (UniProt P05771)
STK3 (human) = STK3 (human) (UniProt Q13188)
FGFR1 (human) = FGFR1 (human) (UniProt P11362)

AURKA (human), sequence (O14965 whole entry, looked up): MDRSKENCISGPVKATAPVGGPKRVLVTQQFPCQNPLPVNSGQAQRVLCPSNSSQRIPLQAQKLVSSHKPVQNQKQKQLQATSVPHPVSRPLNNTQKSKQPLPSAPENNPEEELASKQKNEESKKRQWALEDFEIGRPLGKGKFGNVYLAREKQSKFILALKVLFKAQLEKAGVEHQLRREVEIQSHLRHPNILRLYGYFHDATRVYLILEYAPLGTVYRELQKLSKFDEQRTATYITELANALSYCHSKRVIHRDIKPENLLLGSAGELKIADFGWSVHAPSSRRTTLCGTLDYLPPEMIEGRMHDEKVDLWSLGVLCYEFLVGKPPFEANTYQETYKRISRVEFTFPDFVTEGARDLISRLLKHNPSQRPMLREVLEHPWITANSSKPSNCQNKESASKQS
CAMK2D (human), sequence (Q13557 whole entry, looked up): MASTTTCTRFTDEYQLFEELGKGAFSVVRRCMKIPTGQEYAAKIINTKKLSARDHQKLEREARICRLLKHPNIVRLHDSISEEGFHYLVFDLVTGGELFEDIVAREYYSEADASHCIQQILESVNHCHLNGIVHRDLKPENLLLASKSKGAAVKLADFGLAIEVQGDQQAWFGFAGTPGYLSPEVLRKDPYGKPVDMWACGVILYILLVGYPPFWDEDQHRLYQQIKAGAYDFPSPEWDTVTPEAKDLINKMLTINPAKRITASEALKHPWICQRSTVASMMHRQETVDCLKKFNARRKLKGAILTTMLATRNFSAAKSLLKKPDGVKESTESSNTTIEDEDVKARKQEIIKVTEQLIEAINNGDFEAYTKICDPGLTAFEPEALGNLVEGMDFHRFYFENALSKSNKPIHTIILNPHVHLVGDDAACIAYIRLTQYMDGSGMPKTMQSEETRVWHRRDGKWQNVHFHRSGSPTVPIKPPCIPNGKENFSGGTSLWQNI
MAPK3 (human), sequence (P27361 whole entry, looked up): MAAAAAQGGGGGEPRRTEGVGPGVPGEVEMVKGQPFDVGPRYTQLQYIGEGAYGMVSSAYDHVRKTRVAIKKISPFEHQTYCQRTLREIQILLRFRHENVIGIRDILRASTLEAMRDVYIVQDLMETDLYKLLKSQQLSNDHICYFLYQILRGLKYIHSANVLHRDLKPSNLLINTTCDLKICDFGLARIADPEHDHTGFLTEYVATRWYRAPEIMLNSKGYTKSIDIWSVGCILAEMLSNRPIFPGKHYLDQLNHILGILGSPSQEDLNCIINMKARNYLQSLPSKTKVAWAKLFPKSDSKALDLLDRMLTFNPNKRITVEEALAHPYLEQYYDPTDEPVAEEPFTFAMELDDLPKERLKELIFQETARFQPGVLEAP
RPS6KA1 KD1 KD2 (human), sequence (Q15418 whole entry, looked up): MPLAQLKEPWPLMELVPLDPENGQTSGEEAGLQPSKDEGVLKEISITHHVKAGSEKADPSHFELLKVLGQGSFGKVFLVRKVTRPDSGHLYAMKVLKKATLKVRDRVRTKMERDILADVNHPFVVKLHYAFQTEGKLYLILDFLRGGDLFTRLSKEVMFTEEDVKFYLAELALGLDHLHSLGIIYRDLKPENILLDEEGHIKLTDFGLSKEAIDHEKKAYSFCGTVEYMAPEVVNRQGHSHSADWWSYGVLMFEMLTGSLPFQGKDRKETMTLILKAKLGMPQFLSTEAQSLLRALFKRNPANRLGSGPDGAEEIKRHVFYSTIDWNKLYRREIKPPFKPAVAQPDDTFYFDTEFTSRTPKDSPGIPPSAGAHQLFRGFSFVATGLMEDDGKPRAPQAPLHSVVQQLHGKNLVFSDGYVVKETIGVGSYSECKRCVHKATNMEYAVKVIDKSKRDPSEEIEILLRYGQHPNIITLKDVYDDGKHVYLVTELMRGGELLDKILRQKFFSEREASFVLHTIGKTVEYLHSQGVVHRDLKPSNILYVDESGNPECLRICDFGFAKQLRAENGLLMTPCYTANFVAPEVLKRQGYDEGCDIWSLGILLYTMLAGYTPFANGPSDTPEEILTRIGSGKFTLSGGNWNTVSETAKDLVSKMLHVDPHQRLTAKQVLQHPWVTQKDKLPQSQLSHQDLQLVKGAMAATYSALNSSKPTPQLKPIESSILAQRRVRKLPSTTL
STK3 (human), sequence (Q13188 whole entry, looked up): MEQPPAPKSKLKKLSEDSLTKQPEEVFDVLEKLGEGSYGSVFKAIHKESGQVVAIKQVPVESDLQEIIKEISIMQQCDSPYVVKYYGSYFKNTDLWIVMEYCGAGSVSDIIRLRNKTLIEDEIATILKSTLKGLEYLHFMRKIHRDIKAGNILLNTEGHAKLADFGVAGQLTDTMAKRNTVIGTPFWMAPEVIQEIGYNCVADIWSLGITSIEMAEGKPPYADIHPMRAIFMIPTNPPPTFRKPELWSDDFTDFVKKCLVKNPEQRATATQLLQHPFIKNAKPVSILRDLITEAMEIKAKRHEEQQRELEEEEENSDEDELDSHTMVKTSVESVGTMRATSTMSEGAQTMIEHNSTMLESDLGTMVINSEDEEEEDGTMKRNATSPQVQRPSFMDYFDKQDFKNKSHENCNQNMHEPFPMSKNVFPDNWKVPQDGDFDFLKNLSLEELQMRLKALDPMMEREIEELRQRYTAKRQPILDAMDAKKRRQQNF
RPS6KA3 KD1 KD2 (human), sequence (P51812 whole entry, looked up): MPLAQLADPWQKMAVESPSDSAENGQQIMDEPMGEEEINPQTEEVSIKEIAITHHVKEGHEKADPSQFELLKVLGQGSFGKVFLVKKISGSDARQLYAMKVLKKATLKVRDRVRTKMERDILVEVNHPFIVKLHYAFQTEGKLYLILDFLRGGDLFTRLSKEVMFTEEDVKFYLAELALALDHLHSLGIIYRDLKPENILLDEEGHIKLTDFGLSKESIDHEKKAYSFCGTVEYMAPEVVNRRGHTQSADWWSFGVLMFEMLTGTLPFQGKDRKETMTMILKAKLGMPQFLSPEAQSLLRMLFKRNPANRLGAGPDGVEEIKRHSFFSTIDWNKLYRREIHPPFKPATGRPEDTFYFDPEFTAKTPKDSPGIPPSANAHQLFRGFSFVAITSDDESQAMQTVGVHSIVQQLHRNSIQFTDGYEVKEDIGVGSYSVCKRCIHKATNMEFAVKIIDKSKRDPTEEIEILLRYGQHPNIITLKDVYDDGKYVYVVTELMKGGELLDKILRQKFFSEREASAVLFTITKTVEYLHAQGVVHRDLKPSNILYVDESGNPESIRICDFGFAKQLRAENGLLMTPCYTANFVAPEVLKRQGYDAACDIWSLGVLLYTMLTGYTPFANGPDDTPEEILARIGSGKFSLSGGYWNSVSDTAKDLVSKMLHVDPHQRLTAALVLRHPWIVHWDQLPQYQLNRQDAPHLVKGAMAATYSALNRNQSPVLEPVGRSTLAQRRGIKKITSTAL
PAK2 (human), sequence (Q13177 whole entry, looked up): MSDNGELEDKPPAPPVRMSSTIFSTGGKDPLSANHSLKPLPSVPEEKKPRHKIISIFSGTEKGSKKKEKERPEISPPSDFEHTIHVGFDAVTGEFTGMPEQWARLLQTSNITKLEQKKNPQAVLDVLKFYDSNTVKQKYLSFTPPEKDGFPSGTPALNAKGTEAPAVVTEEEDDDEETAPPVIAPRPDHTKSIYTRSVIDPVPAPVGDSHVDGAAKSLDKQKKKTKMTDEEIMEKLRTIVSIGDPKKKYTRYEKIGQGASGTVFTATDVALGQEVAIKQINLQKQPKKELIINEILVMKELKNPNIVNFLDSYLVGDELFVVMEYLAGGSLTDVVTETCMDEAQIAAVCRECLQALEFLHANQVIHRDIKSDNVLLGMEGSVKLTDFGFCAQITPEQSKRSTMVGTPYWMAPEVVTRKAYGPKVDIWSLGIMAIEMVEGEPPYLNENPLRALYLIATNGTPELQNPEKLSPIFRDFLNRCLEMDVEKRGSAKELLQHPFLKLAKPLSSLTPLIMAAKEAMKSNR
SGK1 (human), sequence (O00141 whole entry, looked up): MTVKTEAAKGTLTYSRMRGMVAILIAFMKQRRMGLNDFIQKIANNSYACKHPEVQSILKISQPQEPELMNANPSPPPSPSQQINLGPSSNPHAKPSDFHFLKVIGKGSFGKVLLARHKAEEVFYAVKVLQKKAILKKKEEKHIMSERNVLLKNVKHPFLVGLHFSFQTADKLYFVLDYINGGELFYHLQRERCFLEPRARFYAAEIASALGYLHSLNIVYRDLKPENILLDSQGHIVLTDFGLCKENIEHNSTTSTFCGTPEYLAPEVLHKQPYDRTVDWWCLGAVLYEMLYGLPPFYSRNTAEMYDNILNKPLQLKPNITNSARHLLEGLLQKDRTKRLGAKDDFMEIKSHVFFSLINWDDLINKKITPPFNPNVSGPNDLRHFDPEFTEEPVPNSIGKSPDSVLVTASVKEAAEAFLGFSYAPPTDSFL
DCLK2 (human), sequence (Q8N568 whole entry, looked up): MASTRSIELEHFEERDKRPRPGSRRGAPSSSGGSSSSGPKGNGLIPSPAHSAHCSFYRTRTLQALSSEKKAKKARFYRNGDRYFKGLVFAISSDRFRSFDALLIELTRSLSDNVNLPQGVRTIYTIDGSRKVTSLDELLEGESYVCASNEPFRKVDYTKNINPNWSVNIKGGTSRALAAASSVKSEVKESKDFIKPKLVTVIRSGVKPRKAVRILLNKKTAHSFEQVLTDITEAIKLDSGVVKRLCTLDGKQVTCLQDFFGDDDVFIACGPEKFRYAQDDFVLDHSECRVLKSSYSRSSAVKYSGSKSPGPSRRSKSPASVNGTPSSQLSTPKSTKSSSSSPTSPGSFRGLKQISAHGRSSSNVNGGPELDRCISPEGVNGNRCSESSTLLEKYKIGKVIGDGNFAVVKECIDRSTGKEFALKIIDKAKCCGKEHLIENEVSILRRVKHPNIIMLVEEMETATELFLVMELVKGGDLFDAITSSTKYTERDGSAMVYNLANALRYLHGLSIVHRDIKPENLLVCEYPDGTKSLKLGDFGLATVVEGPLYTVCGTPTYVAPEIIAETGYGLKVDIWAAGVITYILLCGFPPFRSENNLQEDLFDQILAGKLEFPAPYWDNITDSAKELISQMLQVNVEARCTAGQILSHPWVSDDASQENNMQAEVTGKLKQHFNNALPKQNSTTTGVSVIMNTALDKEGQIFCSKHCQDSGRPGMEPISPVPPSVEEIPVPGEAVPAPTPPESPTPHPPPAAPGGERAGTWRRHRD

Cn1cc(-c2cnc3ccc4ccc(CS(=O)(=O)NCC5CCCCN5)cc4c(=O)c3c2)cn1 (configuration not stated)
inhibition (CAMK2D (human); compound 0.1 µM): 32% | inhibition (CAMK2D (human); compound 1.0 µM): 15.1% | inhibition (CSNK1A1 (human); compound 0.1 µM): -5% | inhibition (CSNK1A1 (human); compound 1.0 µM): -11% | inhibition (EGFR (human); compound 0.1 µM): -4.8% | inhibition (AURKA (human); compound 0.1 µM): 14.5% | inhibition (AURKA (human); compound 1.0 µM): 26.8% | inhibition (ABL1 (human); compound 0.1 µM): 23.1% | inhibition (ABL1 (human); compound 1.0 µM): 61.5% | inhibition (SYK (human); compound 0.1 µM): 13.6% | inhibition (SYK (human); compound 1.0 µM): 0.3% | inhibition (MAPK3 (human); compound 0.1 µM): 7.2% | inhibition (MAPK3 (human); compound 1.0 µM): 2.8% | inhibition (AKT1 (human); compound 0.1 µM): 12.6% | inhibition (AKT1 (human); compound 1.0 µM): 5.2% | inhibition (AKT2 (human); compound 0.1 µM): 0.7% | inhibition (AKT2 (human); compound 1.0 µM): 1.9% | inhibition (RPS6KA1 KD1 KD2 (human); compound 0.1 µM): 8.6% | inhibition (RPS6KA1 KD1 KD2 (human); compound 1.0 µM): 0% | inhibition (BMX (human); compound 0.1 µM): -17.3% | inhibition (BMX (human); compound 1.0 µM): -2.8% | inhibition (RPS6KA3 KD1 KD2 (human); compound 0.1 µM): 0.2% | inhibition (RPS6KA3 KD1 KD2 (human); compound 1.0 µM): -6% | inhibition (FER (human); compound 0.1 µM): 1.2% | inhibition (SGK1 (human); compound 0.1 µM): 7.2% | inhibition (SGK1 (human); compound 1.0 µM): 9.6% | inhibition (DCLK2 (human); compound 0.1 µM): -6% | inhibition (DCLK2 (human); compound 1.0 µM): -0.3% | inhibition (MAPKAPK5 (human); compound 0.1 µM): -4.3% | inhibition (MAPKAPK5 (human); compound 1.0 µM): -1.1% | inhibition (AKT3 (human); compound 0.1 µM): 2% | inhibition (CDK2 (human); compound 0.1 µM): 1.9% | inhibition (CDK2 (human); compound 1.0 µM): 1.4% | inhibition (PAK2 (human); compound 0.1 µM): -7.9% | inhibition (PAK2 (human); compound 1.0 µM): 0.9% | inhibition (LYN (human); compound 0.1 µM): 17.3% | inhibition (LYN (human); compound 1.0 µM): 9.6% | inhibition (CAMK4 (human); compound 0.1 µM): -1.9% | inhibition (CAMK4 (human); compound 1.0 µM): -4.2% | inhibition (MAP4K4 (human); compound 0.1 µM): 4.1% | inhibition (MAP4K4 (human); compound 1.0 µM): 15.7% | inhibition (PRKCB2 (human); compound 0.1 µM): -4.3% | inhibition (PRKCB2 (human); compound 1.0 µM): -2.5% | inhibition (STK3 (human); compound 0.1 µM): -0.1% | inhibition (STK3 (human); compound 1.0 µM): -2.7%

Cn1cc(-c2cnc3ccc4ccc(CS(N)(=O)=O)cc4c(=O)c3c2)cn1
inhibition (CAMK2D (human); compound 0.1 µM): 4.9% | inhibition (CAMK2D (human); compound 1.0 µM): 25.1% | inhibition (CSNK1A1 (human); compound 0.1 µM): -2.8% | inhibition (CSNK1A1 (human); compound 1.0 µM): -4.1% | inhibition (EGFR (human); compound 0.1 µM): 13.3% | inhibition (EGFR (human); compound 1.0 µM): 9.2% | inhibition (AURKA (human); compound 0.1 µM): 27.6% | inhibition (AURKA (human); compound 1.0 µM): 75.5% | inhibition (ABL1 (human); compound 0.1 µM): 6.9% | inhibition (ABL1 (human); compound 1.0 µM): 22.9% | inhibition (SYK (human); compound 0.1 µM): 1.9% | inhibition (SYK (human); compound 1.0 µM): 7.6% | inhibition (MAPK3 (human); compound 0.1 µM): -0.7% | inhibition (MAPK3 (human); compound 1.0 µM): 3.6% | inhibition (AKT1 (human); compound 0.1 µM): -2.2% | inhibition (AKT1 (human); compound 1.0 µM): 1.3% | inhibition (AKT2 (human); compound 0.1 µM): 1.7% | inhibition (AKT2 (human); compound 1.0 µM): 7.1% | inhibition (RPS6KA1 KD1 KD2 (human); compound 0.1 µM): -12.4% | inhibition (RPS6KA1 KD1 KD2 (human); compound 1.0 µM): -3% | inhibition (BMX (human); compound 0.1 µM): 1.6% | inhibition (RPS6KA3 KD1 KD2 (human); compound 0.1 µM): 1.2% | inhibition (RPS6KA3 KD1 KD2 (human); compound 1.0 µM): -1.7% | inhibition (FER (human); compound 0.1 µM): -53.2% | inhibition (FER (human); compound 1.0 µM): -24.2% | inhibition (SGK1 (human); compound 0.1 µM): 6.8% | inhibition (SGK1 (human); compound 1.0 µM): 11.5% | inhibition (DCLK2 (human); compound 0.1 µM): 1.7% | inhibition (DCLK2 (human); compound 1.0 µM): 8.4% | inhibition (MAPKAPK5 (human); compound 0.1 µM): 1.3% | inhibition (MAPKAPK5 (human); compound 1.0 µM): -7.9% | inhibition (AKT3 (human); compound 0.1 µM): 3.1% | inhibition (AKT3 (human); compound 1.0 µM): 3.13% | inhibition (CDK2 (human); compound 0.1 µM): 1.2% | inhibition (CDK2 (human); compound 1.0 µM): -3.9% | inhibition (PAK2 (human); compound 0.1 µM): 1.7% | inhibition (PAK2 (human); compound 1.0 µM): 0.8% | inhibition (LYN (human); compound 0.1 µM): -8.7% | inhibition (LYN (human); compound 1.0 µM): -2.3% | inhibition (CAMK4 (human); compound 0.1 µM): -1.6% | inhibition (CAMK4 (human); compound 1.0 µM): -6.4% | inhibition (MAP4K4 (human); compound 0.1 µM): 7.1% | inhibition (MAP4K4 (human); compound 1.0 µM): 1.8% | inhibition (PRKCB2 (human); compound 0.1 µM): 2.6% | inhibition (PRKCB2 (human); compound 1.0 µM): -6% | inhibition (STK3 (human); compound 0.1 µM): 4.4% | inhibition (STK3 (human); compound 1.0 µM): 7.9%

O=c1c2cc(CS(=O)(=O)NCc3ccccn3)ccc2ccc2ncc(C3CCNCC3)cc12
inhibition (CAMK2D (human); compound 0.01 µM): 1.7% | inhibition (CAMK2D (human); compound 0.1 µM): 13.2% | inhibition (CSNK1A1 (human); compound 0.01 µM): 1.4% | inhibition (CSNK1A1 (human); compound 0.1 µM): -0.5% | inhibition (EGFR (human); compound 0.01 µM): -19.5% | inhibition (EGFR (human); compound 0.1 µM): -36.5% | inhibition (AURKA (human); compound 0.01 µM): -4.6% | inhibition (AURKA (human); compound 0.1 µM): 13.1% | inhibition (ABL1 (human); compound 0.01 µM): -1.8% | inhibition (ABL1 (human); compound 0.1 µM): 5.5% | inhibition (SYK (human); compound 0.01 µM): -4.6% | inhibition (SYK (human); compound 0.1 µM): 6.2% | inhibition (MAPK3 (human); compound 0.01 µM): -1% | inhibition (MAPK3 (human); compound 0.1 µM): 1.7% | inhibition (AKT1 (human); compound 0.01 µM): 2.8% | inhibition (AKT1 (human); compound 0.1 µM): -1.1% | inhibition (AKT2 (human); compound 0.01 µM): -0.2% | inhibition (AKT2 (human); compound 0.1 µM): -1.6% | inhibition (RPS6KA1 KD1 KD2 (human); compound 0.01 µM): -1.6% | inhibition (RPS6KA1 KD1 KD2 (human); compound 0.1 µM): 13.5% | inhibition (BMX (human); compound 0.01 µM): -12.1% | inhibition (BMX (human); compound 0.1 µM): -3.8% | inhibition (RPS6KA3 KD1 KD2 (human); compound 0.01 µM): -1.1% | inhibition (RPS6KA3 KD1 KD2 (human); compound 0.1 µM): 8.1% | inhibition (FER (human); compound 0.01 µM): -6.3% | inhibition (FER (human); compound 0.1 µM): 0.8% | inhibition (SGK1 (human); compound 0.01 µM): -3.6% | inhibition (SGK1 (human); compound 0.1 µM): -31.9% | inhibition (DCLK2 (human); compound 0.01 µM): 8.7% | inhibition (DCLK2 (human); compound 0.1 µM): -0.7% | inhibition (MAPKAPK5 (human); compound 0.01 µM): -4.7% | inhibition (MAPKAPK5 (human); compound 0.1 µM): 1.6% | inhibition (AKT3 (human); compound 0.01 µM): -6.5% | inhibition (AKT3 (human); compound 0.1 µM): 5.2% | inhibition (CDK2 (human); compound 0.01 µM): -0.9% | inhibition (CDK2 (human); compound 0.1 µM): -0.9% | inhibition (PAK2 (human); compound 0.01 µM): 0.1% | inhibition (PAK2 (human); compound 0.1 µM): 3.6% | inhibition (LYN (human); compound 0.01 µM): -6% | inhibition (LYN (human); compound 0.1 µM): -9.2% | inhibition (CAMK4 (human); compound 0.01 µM): 2.8% | inhibition (CAMK4 (human); compound 0.1 µM): -12.8% | inhibition (MAP4K4 (human); compound 0.01 µM): -8.5% | inhibition (MAP4K4 (human); compound 0.1 µM): -10.7% | inhibition (FGFR1 (human); compound 0.01 µM): 3.8% | inhibition (FGFR1 (human); compound 0.1 µM): 10.7% | inhibition (PRKCB2 (human); compound 0.01 µM): 14.8% | inhibition (PRKCB2 (human); compound 0.1 µM): 6% | inhibition (STK3 (human); compound 0.01 µM): 1.5% | inhibition (STK3 (human); compound 0.1 µM): 0.6%
